Earlier results, collected in patent US20140274796A1, “Methods, Systems, and Compositions for In Vitro Concentric Cell Culture Analog Systems” (University of Central Florida Research Foundation, Inc., priority 2013, published 2014).

How the values were obtained:
[1] = test system: sodium-channels of squid axon-membranes; details: literature statement [Lund 1982]
[2] = literature statement [Scollon 2009]
[3] = in vivo

Compound	activity of stereospecific isomer [1]	metabolic rate relative to trans isoform [2]	toxicity relative to trans isomers [3]
CC1(C)C(C=C(Cl)Cl)C1C(=O)OCc1cccc(Oc2ccccc2)c1 (stereo not drawn) [1R-cis-, permethrin]	active		
CC1(C)C(C=C(Cl)Cl)C1C(=O)OCc1cccc(Oc2ccccc2)c1 (stereo not drawn) [1S-cis-, permethrin]	not		
CC1(C)C(C=C(Cl)Cl)C1C(=O)OCc1cccc(Oc2ccccc2)c1 (stereo not drawn) [1S-trans-, permethrin]	not		
CC1(C)C(C=C(Cl)Cl)C1C(=O)OCc1cccc(Oc2ccccc2)c1 (single isomer, unassigned) [cis isomers, permethrin]		much slower	about ten times more toxic than the trans isomers
CC1(C)C(C=C(Cl)Cl)C1C(=O)OCc1cccc(Oc2ccccc2)c1 (stereo not drawn) [1R-trans-, permethrin]	active		
